This is an account of results in publication PMC4125495 (DNA repair, 2014).

Like-named read-outs stand apart in the source and are kept apart here. A value given as a limit tells only on which side of the number the result lay.

Series [1] has as its system BRCA2tr/- cells. The following applies: cited from earlier work.
The target of a further series is PARP1 (Gallus gallus, UniProt P26446). Put plainly: PAR ELISA assay. It counts as cell-based.
For another series, the system named is TDP1-/- cells. The series is described as follows: Secondary screening cell viability assay. The following applies: 5 and 10 nM CPT.
The test system of a further series is DT40 hTDP1 cells. The following applies: no CPT vs CPT (Table 1).
For a further series, the system named is hTDP1 cells. Put plainly: Secondary screening cell viability assay. The following applies: 15 and 20 nM CPT.
Series [2] concerns BRCA2tr/- cells. The series is described as follows: Cell viability assay. It counts as cell-based, chicken. The following applies: single agent, compared with PARP1-/- and hTDP1 cells.
[3] abbreviates: read-out: IC50 Poly (ADP-ribose) lation, PAR ELISA.

Sequence of PARP1 (P26446 whole entry): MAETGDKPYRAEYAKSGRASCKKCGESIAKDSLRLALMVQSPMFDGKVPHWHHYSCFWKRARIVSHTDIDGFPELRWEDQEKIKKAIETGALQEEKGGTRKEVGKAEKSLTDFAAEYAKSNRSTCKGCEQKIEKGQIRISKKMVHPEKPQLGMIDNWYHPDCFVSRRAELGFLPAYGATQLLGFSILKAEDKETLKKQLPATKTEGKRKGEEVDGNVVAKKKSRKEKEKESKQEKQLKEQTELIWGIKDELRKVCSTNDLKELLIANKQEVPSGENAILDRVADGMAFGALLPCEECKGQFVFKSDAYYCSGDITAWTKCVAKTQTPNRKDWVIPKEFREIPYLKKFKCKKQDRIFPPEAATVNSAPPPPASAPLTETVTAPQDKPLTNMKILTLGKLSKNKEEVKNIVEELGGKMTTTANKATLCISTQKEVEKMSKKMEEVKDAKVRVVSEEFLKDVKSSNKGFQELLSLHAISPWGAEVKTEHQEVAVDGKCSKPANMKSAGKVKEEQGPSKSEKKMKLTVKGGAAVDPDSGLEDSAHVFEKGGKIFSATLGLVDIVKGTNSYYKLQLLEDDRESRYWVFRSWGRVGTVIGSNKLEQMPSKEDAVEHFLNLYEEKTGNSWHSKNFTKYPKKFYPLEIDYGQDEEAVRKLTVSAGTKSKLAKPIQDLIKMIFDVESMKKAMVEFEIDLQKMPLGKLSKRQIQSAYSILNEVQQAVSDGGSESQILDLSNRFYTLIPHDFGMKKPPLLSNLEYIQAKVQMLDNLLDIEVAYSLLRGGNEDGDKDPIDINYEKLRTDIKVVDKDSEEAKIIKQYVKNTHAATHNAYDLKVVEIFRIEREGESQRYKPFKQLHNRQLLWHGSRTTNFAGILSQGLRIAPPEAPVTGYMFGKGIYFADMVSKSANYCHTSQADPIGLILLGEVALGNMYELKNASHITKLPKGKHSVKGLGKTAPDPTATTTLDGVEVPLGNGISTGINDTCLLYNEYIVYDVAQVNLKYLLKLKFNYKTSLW

Consider `C[C@]1(c2nc3c(C(N)=O)cccc3[nH]2)CCCN1` [Veliparib, reference compound], for which the “cytotoxic effect in BRCA2tr/- cells” value with BRCA2tr/- cells [1] is reported as “selectively cytotoxic”. The same compound yielded a concentration for half-maximal inhibition (IC50) against PARP1 below 20 nM. The “potentiating (synergistic) effect with CPT in TDP1-/- cells” value in the series on TDP1-/- cells is reported as “lack of synergistic effect”. In addition, the “fold potentiation of cytotoxicity in the presence of CPT” value in the series with DT40 hTDP1 cells amounted to 466 fold.
As to `CC(=O)Nc1ccc2c(c1)[nH]c(=O)c1ccccc12` [Cpd1], the IC50 at PARP1 (setting [3]) was below 20 nM. Also, in the series with hTDP1 cells, the “potentiating (synergistic) effect with CPT in hTDP1 cells” value is on record as “greatest potentiating effect”. In addition, the “potentiating (synergistic) effect with CPT in TDP1-/- cells” value in the series with TDP1-/- cells was “without showing any apparent potentiating effect”. Moreover, the “cytotoxic effect in BRCA2tr/- cells” value in the series with BRCA2tr/- cells [2] is listed as “selectively cytotoxic”. Moreover, in the series with DT40 hTDP1 cells, the “fold potentiation of cytotoxicity in the presence of CPT” value stood at 166 fold.
For the compound `O=C(Nc1cccc2c(=O)[nH][nH]c(=O)c12)c1ccc([N+](=O)[O-])cc1` [Cpd5], the IC50 on PARP1 (setting [3]) was found to be 4600 nM.
